Measured values published in patent publication US7208502B2, “Methods of treating conditions associated with an Edg-3 receptor” (Maniv Energy Capital, priority 2002, dated 2007).

Columns and labels:
Details in all cases: 10 μM; significance criteria ≧50% of max stimulation or inhibition
Dopamine D2L = target: T1, Dopamine D2L (Homo sapiens, UniProt P14416); assay: Radioligand binding assay, 3H Spiperone
T1 construct: expressed in transfected cells; host or cells: CHO cells
Method: (§1) In order to test the selectivity of compounds, various enzyme assays as well as radioligand binding assays were performed using numerous non-Edg receptor targets as listed below.
(§2) A radioligand binding assay was performed using adrenergic α1 according to the method of Greengrass and Bremner 1979, Eur. J. Pharmacol. 55:323–326. A radioligand binding assay was performed using adrenergic α2 according to the method of Boyajian and Leslie, 1987, J. Pharmacol. Exp. Ther. 241:1092–1098. A radioligand binding assay was performed using adrenergic β according to the method of Feve et al., 1994, Proc. Natl. Acad. Sci. USA 91:5677–5681. A radioligand binding assay was performed using angiotensin AT2 according to the method of Whitebread et al., 1991, Biochem. Biophys. Res. Comm. 181:1365–1371. A radioligand binding assay was performed using calcium channel Type L, dihydropyridine according to the method of Ehlert et al., 1982, Life Sci. 30:2191–2202. A radioligand binding assay was performed using dopamine D2L according to the method of Bunzo et al., 1988, Nature 336:783–787. A radioligand binding assay was performed using endothelin ETA according to the method of Mihara et al., 1994, J. Phrmacol. Exp Ther. 268:1122–1127. A radioligand binding assay was performed using histamine H1 Central according to the method of Hill et al., 1978, J. Neurochem. 31:997–1004. […]
(§3) Quantitation Method: Radioligand Binding […]

[1] = system: Serotonin 5-HT1, non-selective; assay: Radioligand binding assay, 3H Serotonin (5-HT) Trifluoroacetate; design: species or system Wistar rat
Method: as §1, §2, §3

Angiotensin AT2 = target: T2, Angiotensin AT2 (Homo sapiens, UniProt P50052); assay: Radioligand binding assay, 125I CGP-42112A
T2 construct: expressed in transfected cells; host or cells: HeLa cells
T2 sequence (P50052 1-363): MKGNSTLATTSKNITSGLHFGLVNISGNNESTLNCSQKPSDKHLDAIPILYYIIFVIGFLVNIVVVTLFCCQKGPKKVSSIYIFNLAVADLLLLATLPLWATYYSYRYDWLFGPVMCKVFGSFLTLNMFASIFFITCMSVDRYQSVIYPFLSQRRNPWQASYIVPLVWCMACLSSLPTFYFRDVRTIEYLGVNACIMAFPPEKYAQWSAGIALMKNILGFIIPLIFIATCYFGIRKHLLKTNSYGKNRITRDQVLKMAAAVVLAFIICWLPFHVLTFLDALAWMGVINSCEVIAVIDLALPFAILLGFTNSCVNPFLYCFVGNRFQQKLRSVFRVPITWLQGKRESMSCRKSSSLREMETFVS
Method: as §1, §2, §3

T1 sequence (P14416 whole entry): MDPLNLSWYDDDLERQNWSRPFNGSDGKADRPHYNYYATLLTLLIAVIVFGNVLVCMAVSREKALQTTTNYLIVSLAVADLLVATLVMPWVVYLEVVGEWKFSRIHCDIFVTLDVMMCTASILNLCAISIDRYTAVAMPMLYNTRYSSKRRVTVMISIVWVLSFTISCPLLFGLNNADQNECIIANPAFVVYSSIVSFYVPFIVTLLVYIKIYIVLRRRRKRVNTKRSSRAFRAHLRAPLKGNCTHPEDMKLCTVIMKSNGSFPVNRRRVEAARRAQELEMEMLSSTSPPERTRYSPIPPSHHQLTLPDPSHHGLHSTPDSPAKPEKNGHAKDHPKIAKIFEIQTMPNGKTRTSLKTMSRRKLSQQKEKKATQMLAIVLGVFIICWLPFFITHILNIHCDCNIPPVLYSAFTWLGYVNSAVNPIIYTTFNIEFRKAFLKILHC

Cc1c(-c2ccccc2)nc2ccccc2c1C(=O)NCc1ccc(F)cc1 [Compound 101, 3-methyl-2-phenyl-quinoline-4-carboxylic acid 4-fluoro-benzylamide]
no activity: activity in standard binding assay, Dopamine D2L (Dopamine D2L) | activity in standard binding assay, Serotonin 5-HT1, non-selective [1] | activity in standard binding assay, Angiotensin AT2 (Angiotensin AT2)
